Key:
U2OS [1] = test: cell viability relative to DMSO; higher = less toxic; settings: 72 h
Vero E6 [2] = test: as above; settings: 72 h
HepG2 [3] = test: as above; settings: 72 h
Caco-2 [4] = test: as above; settings: 72 h
Calu-3 [5] = test: as above; settings: 72 h
[6] = test system: A549-ACE2 infected with SARS-CoV-2; test: morphology score (similarity to uninfected cells); higher = more like uninfected cells; settings: 24 h
A549-ACE2 [7] = test: phospholipidosis EC50; higher = less potent phospholipidosis inducer
[8] = test system: A549-ACE2 infected with SARS-CoV-2; test: SARS-CoV-2 infection rate relative to DMSO; higher = more infection; settings: 24 h
U2OS [9] = test: relative viability EC50 (midpoint between 100% and the lowest measured viability); higher = less toxic; settings: 72 h
Caco-2 [10] = test: as above; settings: 72 h
A549-ACE2 [11] = test: drug-induced phospholipidosis relative to tamoxifen; higher = more phospholipidosis
U2OS [12] = test: drug sensitivity score (DSS) for viability; higher = more toxic; extreme values may be limits of the assay; settings: 72 h
Vero E6 [13] = test: as above; settings: 72 h
HepG2 [14] = test: as above; settings: 72 h
Caco-2 [15] = test: as above; settings: 72 h
Calu-3 [16] = test: as above; settings: 72 h
[17] = test system: A549-ACE2 infected with SARS-CoV-2; test: cell count relative to DMSO; higher = less toxic; settings: 24 h
Vero E6 [18] = test: relative viability EC50 (midpoint between 100% and the lowest measured viability); higher = less toxic; settings: 72 h
Calu-3 [19] = test: as above; settings: 72 h
HepG2 [20] = test: as above; settings: 72 h

CSc1ccc2c(c1)[C@H](N1CCN(C)CC1)Cc1ccccc1S2 (racemic) [metitepine]
Settings	SARS-CoV-2 infection rate [%]	cell count [%]	cell viability [%]	morphology score	phospholipidosis EC50 [µM]
A549-ACE2 [7], 24 h	–	–	–	–	3.04
A549-ACE2 [7], 48 h	–	–	–	–	5.86
A549-ACE2 [7], 72 h	–	–	–	–	9.23
Caco-2 [4], 1 nM	–	–	108	–	–
Caco-2 [4], 10 nM	–	–	92.9	–	–
Caco-2 [4], 100 nM	–	–	99.2	–	–
Caco-2 [4], 1000 nM	–	–	102	–	–
Caco-2 [4], 10000 nM	–	–	48.5	–	–
Calu-3 [5], 1 nM	–	–	98.4	–	–
Calu-3 [5], 10 nM	–	–	101	–	–
Calu-3 [5], 100 nM	–	–	98.2	–	–
Calu-3 [5], 1000 nM	–	–	104	–	–
Calu-3 [5], 10000 nM	–	–	73.2	–	–
HepG2 [3], 1 nM	–	–	101	–	–
HepG2 [3], 10 nM	–	–	107	–	–
HepG2 [3], 100 nM	–	–	103	–	–
HepG2 [3], 1000 nM	–	–	99	–	–
HepG2 [3], 10000 nM	–	–	64.3	–	–
U2OS [1], 1 nM	–	–	98.9	–	–
U2OS [1], 10 nM	–	–	97.6	–	–
U2OS [1], 100 nM	–	–	97.1	–	–
U2OS [1], 1000 nM	–	–	97.2	–	–
U2OS [1], 10000 nM	–	–	93.2	–	–
Vero E6 [2], 1 nM	–	–	106	–	–
Vero E6 [2], 10 nM	–	–	104	–	–
Vero E6 [2], 100 nM	–	–	102	–	–
Vero E6 [2], 1000 nM	–	–	101	–	–
Vero E6 [2], 10000 nM	–	–	71.6	–	–
[6], 0.1 µM	–	–	–	0.14	–
[6], 0.3 µM	–	–	–	0.39	–
[6], 1 µM	–	–	–	0.32	–
[6], 3 µM	–	–	–	0.72	–
[8], 0.1 µM	106	–	–	–	–
[8], 0.3 µM	90	–	–	–	–
[8], 1 µM	88	–	–	–	–
[8], 3 µM	47	–	–	–	–
[17], 0.1 µM	–	101	–	–	–
[17], 0.3 µM	–	104	–	–	–
[17], 1 µM	–	108	–	–	–
[17], 3 µM	–	94	–	–	–

Settings	drug sensitivity score	relative viability EC50 [µM]
Caco-2 [10]	–	3.35
Caco-2 [15]	2.6	–
Calu-3 [16]	0.8	–
HepG2 [14]	1.8	–
U2OS [9]	–	> 10
U2OS [12]	0	–
Vero E6 [13]	1.1	–

drug-induced phospholipidosis [%], A549-ACE2 [11]
Settings	0.3 µM	0.833333 µM	3.33333 µM	6.66667 µM	10 µM	30 µM
24 h	7.38	6.64	62.5	91.7	105	86.3
48 h	6.3	11.3	47.9	92.1	115	–
72 h	8.87	6.23	37.4	86.6	125	–

CN1Cc2ccccc2[C@@H]2c3cccc4[nH]cc(c34)C[C@H]21 [CY208-243]
Settings	SARS-CoV-2 infection rate [%]	cell count [%]	cell viability [%]	morphology score	phospholipidosis EC50 [µM]
A549-ACE2 [7], 24 h	–	–	–	–	8.69
A549-ACE2 [7], 48 h	–	–	–	–	27.8
Caco-2 [4], 1 nM	–	–	99.1	–	–
Caco-2 [4], 10 nM	–	–	100	–	–
Caco-2 [4], 100 nM	–	–	94.8	–	–
Caco-2 [4], 1000 nM	–	–	110	–	–
Caco-2 [4], 10000 nM	–	–	82.8	–	–
Calu-3 [5], 1 nM	–	–	92.8	–	–
Calu-3 [5], 10 nM	–	–	99.8	–	–
Calu-3 [5], 100 nM	–	–	93.8	–	–
Calu-3 [5], 1000 nM	–	–	96.5	–	–
Calu-3 [5], 10000 nM	–	–	90.4	–	–
HepG2 [3], 1 nM	–	–	102	–	–
HepG2 [3], 10 nM	–	–	96.9	–	–
HepG2 [3], 100 nM	–	–	92.1	–	–
HepG2 [3], 1000 nM	–	–	99.5	–	–
HepG2 [3], 10000 nM	–	–	59.7	–	–
U2OS [1], 1 nM	–	–	95.7	–	–
U2OS [1], 10 nM	–	–	99.4	–	–
U2OS [1], 100 nM	–	–	97.3	–	–
U2OS [1], 1000 nM	–	–	100	–	–
U2OS [1], 10000 nM	–	–	83.3	–	–
Vero E6 [2], 1 nM	–	–	99	–	–
Vero E6 [2], 10 nM	–	–	92.7	–	–
Vero E6 [2], 100 nM	–	–	97	–	–
Vero E6 [2], 1000 nM	–	–	99.2	–	–
Vero E6 [2], 10000 nM	–	–	83.8	–	–
[6], 0.3 µM	–	–	–	-0.03	–
[6], 3 µM	–	–	–	0.26	–
[6], 10 µM	–	–	–	0.44	–
[6], 30 µM	–	–	–	0.69	–
[8], 0.3 µM	100	–	–	–	–
[8], 3 µM	99	–	–	–	–
[8], 10 µM	87	–	–	–	–
[8], 30 µM	52	–	–	–	–
[17], 0.3 µM	–	97	–	–	–
[17], 3 µM	–	77	–	–	–
[17], 10 µM	–	82	–	–	–
[17], 30 µM	–	80	–	–	–

Settings	drug sensitivity score	relative viability EC50 [µM]
Caco-2 [10]	–	> 10
Caco-2 [15]	0.2	–
Calu-3 [16]	0	–
Calu-3 [19]	–	> 10
HepG2 [14]	2.1	–
U2OS [9]	–	> 10
U2OS [12]	0.3	–
Vero E6 [13]	0.4	–
Vero E6 [18]	–	> 10

drug-induced phospholipidosis [%], A549-ACE2 [11]
Settings	0.3 µM	0.833333 µM	3.33333 µM	6.66667 µM	10 µM	30 µM
24 h	2.51	3.29	14.1	30.7	58.4	88.2
48 h	1.19	3.01	17.4	28.4	77.3	–
72 h	4.71	3.9	–	–	–	–

CCOc1cn(-c2ccc(F)cc2C)nc1C(=O)Nc1ccc(Oc2ccnc3cc(OC)c(OC)cc23)c(F)c1 [LDC1267]
Settings	SARS-CoV-2 infection rate [%]	cell count [%]	cell viability [%]	morphology score	phospholipidosis EC50 [µM]
A549-ACE2 [7], 24 h	–	–	–	–	3.79
A549-ACE2 [7], 72 h	–	–	–	–	3.79
Caco-2 [4], 1 nM	–	–	95.3	–	–
Caco-2 [4], 10 nM	–	–	96.1	–	–
Caco-2 [4], 100 nM	–	–	94.7	–	–
Caco-2 [4], 1000 nM	–	–	91.9	–	–
Caco-2 [4], 10000 nM	–	–	68.7	–	–
Calu-3 [5], 1 nM	–	–	100	–	–
Calu-3 [5], 10 nM	–	–	99	–	–
Calu-3 [5], 100 nM	–	–	95.3	–	–
Calu-3 [5], 1000 nM	–	–	87.9	–	–
Calu-3 [5], 10000 nM	–	–	73	–	–
HepG2 [3], 1 nM	–	–	106	–	–
HepG2 [3], 10 nM	–	–	94.7	–	–
HepG2 [3], 100 nM	–	–	99.9	–	–
HepG2 [3], 1000 nM	–	–	88.5	–	–
HepG2 [3], 10000 nM	–	–	76.2	–	–
U2OS [1], 1 nM	–	–	97.5	–	–
U2OS [1], 10 nM	–	–	101	–	–
U2OS [1], 100 nM	–	–	98.4	–	–
U2OS [1], 1000 nM	–	–	102	–	–
U2OS [1], 10000 nM	–	–	83.1	–	–
Vero E6 [2], 1 nM	–	–	105	–	–
Vero E6 [2], 10 nM	–	–	103	–	–
Vero E6 [2], 100 nM	–	–	103	–	–
Vero E6 [2], 1000 nM	–	–	96.9	–	–
Vero E6 [2], 10000 nM	–	–	100	–	–
[6], 0.3 µM	–	–	–	0.33	–
[6], 3 µM	–	–	–	0.25	–
[6], 10 µM	–	–	–	0.23	–
[6], 30 µM	–	–	–	0.15	–
[8], 0.3 µM	91	–	–	–	–
[8], 3 µM	107	–	–	–	–
[8], 10 µM	90	–	–	–	–
[8], 30 µM	93	–	–	–	–
[17], 0.3 µM	–	102	–	–	–
[17], 3 µM	–	100	–	–	–
[17], 10 µM	–	91	–	–	–
[17], 30 µM	–	84	–	–	–

Settings	drug sensitivity score	relative viability EC50 [µM]
Caco-2 [15]	2.4	–
Calu-3 [16]	2	–
HepG2 [14]	2.2	–
HepG2 [20]	–	> 10
U2OS [9]	–	> 10
U2OS [12]	0.3	–
Vero E6 [13]	0	–
Vero E6 [18]	–	> 10

drug-induced phospholipidosis [%], A549-ACE2 [11]
Settings	0.3 µM	0.833333 µM	3.33333 µM	6.66667 µM	10 µM	30 µM
24 h	2.46	2.17	18.8	41.1	67	35
48 h	6.67	3.21	28.6	39.5	–	48.4
72 h	7.89	6.46	31.2	48.2	–	61.4

CC(C)(Cc1ccc2ccccc2c1)NC[C@@H](O)COc1cccc(Cl)c1C#N [NPS-2143]
Settings	SARS-CoV-2 infection rate [%]	cell count [%]	cell viability [%]	morphology score	phospholipidosis EC50 [µM]
A549-ACE2 [7], 24 h	–	–	–	–	1.06
A549-ACE2 [7], 48 h	–	–	–	–	2.34
A549-ACE2 [7], 72 h	–	–	–	–	3.1
Caco-2 [4], 1 nM	–	–	99.1	–	–
Caco-2 [4], 10 nM	–	–	101	–	–
Caco-2 [4], 100 nM	–	–	103	–	–
Caco-2 [4], 1000 nM	–	–	100	–	–
Caco-2 [4], 10000 nM	–	–	50.5	–	–
Calu-3 [5], 1 nM	–	–	89.4	–	–
Calu-3 [5], 10 nM	–	–	95.8	–	–
Calu-3 [5], 100 nM	–	–	96.7	–	–
Calu-3 [5], 1000 nM	–	–	103	–	–
Calu-3 [5], 10000 nM	–	–	0.6	–	–
HepG2 [3], 1 nM	–	–	100	–	–
HepG2 [3], 10 nM	–	–	104	–	–
HepG2 [3], 100 nM	–	–	103	–	–
HepG2 [3], 1000 nM	–	–	101	–	–
HepG2 [3], 10000 nM	–	–	53.9	–	–
U2OS [1], 1 nM	–	–	100	–	–
U2OS [1], 10 nM	–	–	97.9	–	–
U2OS [1], 100 nM	–	–	105	–	–
U2OS [1], 1000 nM	–	–	96.1	–	–
U2OS [1], 10000 nM	–	–	39.1	–	–
Vero E6 [2], 1 nM	–	–	93.1	–	–
Vero E6 [2], 10 nM	–	–	97.6	–	–
Vero E6 [2], 100 nM	–	–	93.5	–	–
Vero E6 [2], 1000 nM	–	–	99.6	–	–
Vero E6 [2], 10000 nM	–	–	84.4	–	–
[6], 0.3 µM	–	–	–	0.09	–
[6], 3 µM	–	–	–	0.87	–
[6], 10 µM	–	–	–	0.11	–
[8], 0.3 µM	101	–	–	–	–
[8], 3 µM	23	–	–	–	–
[8], 10 µM	43	–	–	–	–
[17], 0.3 µM	–	100	–	–	–
[17], 3 µM	–	113	–	–	–
[17], 10 µM	–	68	–	–	–

Settings	drug sensitivity score	relative viability EC50 [µM]
Caco-2 [15]	2.6	–
Calu-3 [16]	5.3	–
Calu-3 [19]	–	3.32
HepG2 [14]	2.3	–
U2OS [9]	–	2.65
U2OS [12]	3.9	–
Vero E6 [13]	0.3	–
Vero E6 [18]	–	> 10

drug-induced phospholipidosis [%], A549-ACE2 [11]
Settings	0.3 µM	0.833333 µM	3.33333 µM	6.66667 µM	10 µM	30 µM
24 h	14.7	30.2	98.4	140	135	14.7
48 h	8.59	25.2	96.8	135	132	–
72 h	10.7	13.3	94	135	133	–

Reference: the supplement of paper PMC13380429
